Reference: patent US20190389958A1, “ANTI-CXCR4 ANTIBODIES” (MSM Protein Technologies, Inc., priority 2017, published 2019)

Columns and labels:
Human U937 cells = experiment: Inhibition of SDF-1alpha-induced chemotaxis/cell migration (Example 9); format: cell-based; settings: U-937, SDF-1alpha 3 nM, AMD3100 1 μM
Experimental: Human U937 cells were grown in RPMI-1640 medium with 10% FCS, then washed twice and incubated in serum-free RPMI-1640 at 37° C. for 3 hours (5% CO2). Starved […] cells were re-suspended in medium for chemotaxis (RPMI-1640 with 0.3% BSA) at 3*10^5 cells per ml and • a) incubated for 30 min at room temperature (not-pre-treated positive control for assay); • b) pre-treated with AMD 3100 at 1 μM concentration (positive control for chemotaxis inhibition) for 30 min at room temperature; or • c) pre-treated with a test IgG at 100 nM concentration for 30 min at room temperature.
Respective not-pre-treated or pre-treated U937 cells were then placed into the top wells of a microchemotaxis chamber (15,000 cells per well).
A polycarbonate filter with a […] pore diameter separated top and bottom chambers.
After incubation for one hour at 37° C. (5% CO2), the cell suspensions were removed from the top wells, and the wells were washed once with PBS. […] The number of migrated cells in each well was determined using a Guava PCA-96 cytometer. […]
Maximal SDF-1 induced migration was calculated as the difference in the number of migrated cells between conditions (al) and (a) in the Table immediately above. The percentage of migration inhibition for a test antibody was then calculated by reference to this maximal migration.

RA1 cells [1] = experiment: Antibody-dependent cell-mediated cytotoxicity (ADCC), LDH release (Example 10); format: cell-based, human; settings: E:T ratio 20:1
Experimental: ADCC was measured with RA1 cells as the target cells (T) and using the CytoTox 96® Non-Radioactive Cytotoxicity Assay (Promega Corp., Fitchburg, Wis.)), which assay measures lactate dehydrogenase (LDH) release. A round-bottom 96-well culture plate was set up with the following control and experimental wells (100 microliter final volumes):
a. RA1 cells (for target cell spontaneous LDH release control) b. RA1 cells (for target cell maximum LDH release control) c. Culture medium (RPMI 1640 Medium (1X) without phenol red) used for volume correction control d. Culture medium (for culture medium background control) e. RA1 plus effector cells (E) (for target plus effector cell spontaneous LDH release control) f. Experimental wells with effector and target cells (10^5) with serial dilutions of each test IgG or without test IgG.
The plates were centrifuged at 1600 rpm for 2 minutes and incubated at 37° C. for 4 hours. One hour prior to supernatant harvest, 20 microliters of Lysis Solution (10×) were added to the conditions b) and c). The plates were centrifuged at 1600 rpm for 2 minutes, and 50 microliters of the supernatant from each well of the assay plates were transferred to corresponding wells of a flat-bottom 96-well enzymatic assay plate. Substrate Mix (50 microliters) was added to each well of the latter plate, and the plate (protected from light) was incubated for 30 minutes at room temperature. Finally, 50 microliters of Stop Solution were added to each well, and absorbance (OD values) was measured at 490 nm. Each condition was tested in triplicates.
Preliminary experiments had been conducted in order to determine the optimal E:T ratio. The data shown below were obtained at a 20:1 E:T ratio with 10^5 RA1 target cells. The effector cells used in this study were prepared as follows: human peripheral blood mononuclear cells (PBMCs) obtained from a healthy donor were isolated by means of density gradient centrifugation using Lymphocyte Separation Medium (ref. J15-004, Invitrogen Corp., Carlsbad, Calif.). PBMCs at 2×10^6 per mL were cultured for two days in RPMI 1640 with 10% FCS, penicillin/streptomycin and 100 units per mL of human recombinant IL-2 (obtained from Roussel-Uclaf) in a 37° C. humidified incubator (5% CO2).
ADCC percentages obtained at different concentrations of test IgGs were calculated with the formula % ADCC=(f−e)/(b−a)×100, i.e., % ADCC=(OD of Target+Effector cells +/−Test Mab −OD of Spontaneous Release of Target+Effector cells)/(OD Maximal Release Target cells −OD Spontaneous Release of Target cells)×100.

RA1 cells [2] = experiment: Anti-tumor activity in a SCID/RA1 xenograft model of Burkitt's lymphoma (Example 11); format: in vivo, SCID mice; settings: for Mean Survival / Median Survival / Mice alive at the end of the study = day 81 / % Increased life span: 10 mg/kg, IV, Q4D × 6; for % Increased life span: ILS % = [(T-C)/C]×100 of median survival; for survival of mice (in words): SCID mice with RA1 cells
Experimental: The therapeutic effect of test antibodies was evaluated in an animal model of Burkitt's lymphoma. In the model used, systemic cancer in SCID mice causes hind limb paralysis and infiltrates all major organs.
Forty-eight hours before tumor cell injection, female SCID mice (7-9 weeks old, weighing 17-22 g) were irradiated with a γ-source (1.8 Gy, ^60Co). […] The tumor bearing mice were distributed on D4 into 10 groups of 10 mice each based on body weight using Vivo Manager® software (Biosystemes, Dijon, France). […] Treatment started on D4: mice were administered intravenously a 5 mg/kg or a 10 mg/kg dose of test antibody on days 4, 8, 12, 16, 20 and 24. The vehicle for injection was 10 mM Na-Citrate, 150 mM NaCl, 50 mM Arginine (pH 5.5). Body weights were measured and recorded twice weekly. Mean survival time was calculated for each group as the mean of the day of death, and median survival time was calculated for each group as the median of the day of death. The efficacy of each test antibody was judged by the increased life span value (ILS). ILS % was expressed as follows: ILS %=[(T-C)/C]×100. T was the median of the survival times of animals treated with each test antibody, and C was the median survival time of control animals treated with vehicle.

Compound	inhibition at 1 µM (Human U937 cells) [%]	ADCC percentage (RA1 cells [1]; 0.0001 μg/mL) [%]	ADCC percentage (RA1 cells [1]; 0.001 μg/mL) [%]	ADCC percentage (RA1 cells [1]; 0.01 μg/mL) [%]	ADCC percentage (RA1 cells [1]; 0.1 μg/mL) [%]	ADCC percentage (RA1 cells [1]; 1 μg/mL) [%]	Mean Survival (RA1 cells [2]) [days]	Median Survival (RA1 cells [2]) [days]	Mice alive at the end of the study = day 81 (RA1 cells [2])	% Increased life span (RA1 cells [2]) [%]	survival of mice (in words) (RA1 cells [2])
c1cc(CN2CCCNCCNCCCNCC2)ccc1CN1CCCNCCNCCCNCC1 [AMD3100]	98										
Rituximab: CD20 antibody Mabthera, used as positive control [reference compound]		3	8	27	46	60	63	62	0/10	130	lived significantly longer than control mice
Xolair: isotypic control [reference compound]							29	27	0/10	0	died of disseminated disease with severe weight loss or were terminated because they were moribund within four weeks
